Earlier results as cited in patent US20260083654A1, “PHOTOPROTECTIVE SYSTEM CONSISTING OF 4 SUNSCREENS” (PIERRE FABRE DERMO-COSMETIQUE, priority 2019, published 2026).
“And” between values parts separate entries of the source, which are not always exact repeats. Equal entries are not always repeated.

Conditions: two peaks, broad spectrum filter

absorption peaks: 310 nm and 340 nm
Structure (SMILES): CCCCC(CC)COc1ccc(-c2nc(-c3ccc(OC)cc3)nc(-c3ccc(OCC(CC)CCCC)cc3O)n2)c(O)c1 (stereo not shown) [BEMT, 2,4-bis[4-(2-ethylhexyloxy)-2-hydroxyphenyl]-6-(4-methoxyphenyl)-1,3,5-triazine]
